From US20230111310A1, “CARBOXYLIC ACID DERIVATIVE-SUBSTITUTED IMINO ARYL COMPOUND, PREPARATION METHOD THEREFOR, HERBICIDAL COMPOSITION AND USE THEREOF” (Qingdao Kingagroot Chemical Compound Co., Ltd., priority 2020, published 2023)

Experiments:
Assay in all cases: Weeding effect in post-emergence stage
Assay type in all cases: in vivo
[1] = test system: Abutilon theophrasti; conditions: for Weeding effect in post-emergence stage, Abutilon theophrasti: level of fresh weight growth control rate; for Weeding effect in post-emergence stage, Abutilon theophrasti (level): fresh weight control rate level
How it was run: (§1)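 Weeds were treated post-emergence at 2-3 leaves with compound doses from 7.5 up to 500 g/ha, formulated in acetone–Tween 80 with methyl oleate synergist. Efficacy was assessed as growth control after 3 weeks.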

[2] = test system: Alopecurus japonicus; conditions: for Weeding effect in post-emergence stage, Alopecurus japonicus: level of fresh weight growth control rate; for Weeding effect in post-emergence stage, Alopecurus japonicus (level): fresh weight control rate level
How it was run: as §1

[3] = test system: Digitaria sanguinalis; conditions: for Weeding effect in post-emergence stage, Digitaria sanguinalis: level of fresh weight growth control rate; for Weeding effect in post-emergence stage, Digitaria sanguinalis (level): fresh weight control rate level
How it was run: as §1

[4] = test system: Eleusine indica; conditions: for Weeding effect in post-emergence stage, Eleusine indica: level of fresh weight growth control rate; for Weeding effect in post-emergence stage, Eleusine indica (level): fresh weight control rate level
How it was run: as §1

[5] = test system: Setaria viridis; conditions: for Weeding effect in post-emergence stage, Setaria viridis: level of fresh weight growth control rate; for Weeding effect in post-emergence stage, Setaria viridis (level): fresh weight control rate level
How it was run: as §1

[6] = test system: Echinochloa crusgalli; conditions: for Weeding effect in post-emergence stage, Echinochloa crusgalli: level of fresh weight growth control rate; for Weeding effect in post-emergence stage, Echinochloa crusgalli (level): fresh weight control rate level
How it was run: as §1

| Compound | Weeding effect in post-emergence stage, Abutilon theophrasti ([1]; Dose 15 g/ha) | Weeding effect in post-emergence stage, Alopecurus japonicus ([2]; Dose 15 g/ha) | Weeding effect in post-emergence stage, Digitaria sanguinalis ([3]; Dose 15 g/ha) | Weeding effect in post-emergence stage, Eleusine indica ([4]; Dose 15 g/ha) | Weeding effect in post-emergence stage, Setaria viridis ([5]; Dose 15 g/ha) | Weeding effect in post-emergence stage, Echinochloa crusgalli ([6]; Dose 15 g/ha) | Weeding effect in post-emergence stage, Abutilon theophrasti (level) ([1]; Dose 15 g/ha) | Weeding effect in post-emergence stage, Alopecurus japonicus (level) ([2]; Dose 15 g/ha) | Weeding effect in post-emergence stage, Digitaria sanguinalis (level) ([3]; Dose 15 g/ha) | Weeding effect in post-emergence stage, Eleusine indica (level) ([4]; Dose 15 g/ha) | Weeding effect in post-emergence stage, Setaria viridis (level) ([5]; Dose 15 g/ha) | Weeding effect in post-emergence stage, Echinochloa crusgalli (level) ([6]; Dose 15 g/ha) | other results |
| --- | --- | --- | --- | --- | --- | --- | --- | --- | --- | --- | --- | --- | --- |
| COC(=O)C(O/N=C/c1cc(-n2c(=O)cc(C(F)(F)F)n(C)c2=O)c(F)cc1Cl)c1ccccc1 (stereo not drawn) [Compound 337] | 5 (Level 5: growth control rate is above 85%) | 5 (Level 5: growth control rate is above 85%) | 5 (Level 5: growth control rate is above 85%) | 5 (Level 5: growth control rate is above 85%) | 5 (Level 5: growth control rate is above 85%) | 5 (Level 5: growth control rate is above 85%) | – | – | – | – | – | – | – |
| COCC(O/N=C/c1cc(-n2c(=O)cc(C(F)(F)F)n(C)c2=O)c(F)cc1Cl)C(=O)OC (stereo not drawn) [Compound 333] | 5 (Level 5: growth control rate is above 85%) | 5 (Level 5: growth control rate is above 85%) | 5 (Level 5: growth control rate is above 85%) | 5 (Level 5: growth control rate is above 85%) | 5 (Level 5: growth control rate is above 85%) | 5 (Level 5: growth control rate is above 85%) | – | – | – | – | – | – | – |
| COC(=O)[C@@H](C)O/N=C/c1cc(-n2c(=O)c(C)c(C(F)(F)F)n(C)c2=O)c(F)cc1Cl [473(R)] | – | – | – | – | – | – | – | – | – | – | – | – | Weeding effect in post-emergence stage, Abutilon theophrasti (level) ([1]; Dose 30 g/ha): 5 (Level 5: growth control rate is above 85%); Weeding effect in post-emergence stage, Alopecurus japonicus (level) ([2]; Dose 30 g/ha): 5 (Level 5: growth control rate is above 85%); Weeding effect in post-emergence stage, Digitaria sanguinalis (level) ([3]; Dose 30 g/ha): 5 (Level 5: growth control rate is above 85%); Weeding effect in post-emergence stage, Eleusine indica (level) ([4]; Dose 30 g/ha): 5 (Level 5: growth control rate is above 85%); Weeding effect in post-emergence stage, Setaria viridis (level) ([5]; Dose 30 g/ha): 5 (Level 5: growth control rate is above 85%); Weeding effect in post-emergence stage, Echinochloa crusgalli (level) ([6]; Dose 30 g/ha): 5 (Level 5: growth control rate is above 85%) |
| C[C@@H](O/N=C/c1cc(-n2c(=O)cc(C(F)(F)F)n(C)c2=O)c(F)cc1Cl)C(=O)OCC(C)(F)F [220(R)] | 5 (Level 5: growth control rate is above 85%) | 5 (Level 5: growth control rate is above 85%) | 5 (Level 5: growth control rate is above 85%) | 5 (Level 5: growth control rate is above 85%) | 5 (Level 5: growth control rate is above 85%) | 5 (Level 5: growth control rate is above 85%) | – | – | – | – | – | – | – |
| CC(O/N=C/c1cc(-n2c(=O)cc(C(F)(F)F)n(C)c2=O)c(F)cc1Cl)C(=O)OCCN(C)C (stereo not drawn) [Compound 448] | – | – | – | – | – | – | 5 (Level 5: growth control rate is above 85%) | 5 (Level 5: growth control rate is above 85%) | 5 (Level 5: growth control rate is above 85%) | 5 (Level 5: growth control rate is above 85%) | 5 (Level 5: growth control rate is above 85%) | 5 (Level 5: growth control rate is above 85%) | – |
| COC(=O)[C@@H](C)O/N=C/c1cc(-n2c(=S)cc(C(F)(F)F)n(C)c2=O)c(F)cc1Br [388(R)] | – | – | – | – | – | – | 5 (Level 5: growth control rate is above 85%) | 5 (Level 5: growth control rate is above 85%) | 5 (Level 5: growth control rate is above 85%) | 5 (Level 5: growth control rate is above 85%) | 5 (Level 5: growth control rate is above 85%) | 5 (Level 5: growth control rate is above 85%) | – |
| C[C@@H](O/N=C/c1cc(-n2c(=O)cc(C(F)(F)F)n(C)c2=O)c(F)cc1Cl)C(=O)OCc1cccc(F)c1 [285(R)] | – | – | – | – | – | – | – | – | – | – | – | – | Weeding effect in post-emergence stage, Abutilon theophrasti ([1]; Dose 30 g/ha): 5 (Level 5: growth control rate is above 85%); Weeding effect in post-emergence stage, Alopecurus japonicus ([2]; Dose 30 g/ha): 5 (Level 5: growth control rate is above 85%); Weeding effect in post-emergence stage, Digitaria sanguinalis ([3]; Dose 30 g/ha): 5 (Level 5: growth control rate is above 85%); Weeding effect in post-emergence stage, Eleusine indica ([4]; Dose 30 g/ha): 5 (Level 5: growth control rate is above 85%); Weeding effect in post-emergence stage, Setaria viridis ([5]; Dose 30 g/ha): 5 (Level 5: growth control rate is above 85%); Weeding effect in post-emergence stage, Echinochloa crusgalli ([6]; Dose 30 g/ha): 5 (Level 5: growth control rate is above 85%) |
| COC(=O)C(C)SN=Cc1cc(-n2c(=O)cc(C(F)(F)F)n(C)c2=O)c(F)cc1Cl (stereo not drawn) [Compound 730] | – | – | – | – | – | – | 5 (Level 5: growth control rate is above 85%) | 5 (Level 5: growth control rate is above 85%) | 5 (Level 5: growth control rate is above 85%) | 5 (Level 5: growth control rate is above 85%) | 5 (Level 5: growth control rate is above 85%) | 5 (Level 5: growth control rate is above 85%) | – |
